Drawing on the NIST ThermoML archive (doi:10.1016/j.fluid.2012.05.006), this text covers activity coefficient for two molecules.

± gives the expanded uncertainty stated by the source.

A short description of this series: activity coefficient (dimensionless); of the first substance listed, at infinite dilution; xn = mol fraction of the nth substance listed. The settings on record: Liquid, Chromatography, x1 = 0.

For `CC(C)CC(C)(C)C` [2,2,4-trimethylpentane] + CCCCCCCCn1cc[n+](C)c1.O=[N+]([O-])[O-], the activity coefficient is 18.5 ± 0.66 (303.15 K); 16.8 ± 0.6 (313.15 K); 15.4 ± 0.55 (323.15 K); 14.1 ± 0.51 (333.15 K); 13.3 ± 0.48 (343.15 K); 12.3 ± 0.44 (353.15 K). Moreover, the activity coefficient (363.15 K) was 11.4 ± 0.41.
Turning to `C1CCCCC1` [cyclohexane] + CCCCCCCCn1cc[n+](C)c1.O=[N+]([O-])[O-], the activity coefficient came to 6.52 ± 0.23 (303.15 K); 6.27 ± 0.22 (313.15 K); 5.89 ± 0.21 (323.15 K); 5.58 ± 0.2 (333.15 K); 5.27 ± 0.19 (343.15 K); 5.09 ± 0.19 (353.15 K). The activity coefficient (363.15 K) stood at 4.93 ± 0.18.
